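Briefly, cells in 96-well plates were exposed to five compound concentrations for 48 h, and endpoints were estimated by linear interpolation. At the GI50, growth is halved.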 The source made the active and inactive calls. Rule as the data show it: active = GI50 up to about 1.1 µM and inactive = higher.
Tests used:
Experiment in all cases: growth of human tumour cells (NCI), 48 h
ACHN = test system: ACHN
BT-549 = test system: BT-549
CAKI-1 = test system: CAKI-1
CCRF-CEM = test system: CCRF-CEM
COLO 205 = test system: COLO 205
DU-145 = test system: DU-145
EKVX = test system: EKVX
HCC 2998 = test system: HCC 2998
HCT-116 = test system: HCT-116
HCT-15 = test system: HCT-15
HOP-62 = test system: HOP-62
HOP-92 = test system: HOP-92
LOX IMVI = test system: LOX IMVI
M14 = test system: M14
NCI-H460 = test system: NCI-H460
OVCAR-3 = test system: OVCAR-3
RPMI-8226 = test system: RPMI-8226
SNB-75 = test system: SNB-75
T47D = test system: T47D
UACC-62 = test system: UACC-62

SMILES	GI50 (ACHN)	GI50 (BT-549)	GI50 (CAKI-1)	GI50 (CCRF-CEM)	GI50 (COLO 205)	GI50 (DU-145)	GI50 (EKVX)	GI50 (HCC 2998)	GI50 (HCT-116)	GI50 (HCT-15) [µM]	GI50 (HOP-62)	GI50 (HOP-92)	GI50 (LOX IMVI)	GI50 (M14)	GI50 (NCI-H460)	GI50 (OVCAR-3)	GI50 (RPMI-8226)	GI50 (SNB-75)	GI50 (T47D)	GI50 (UACC-62)
C=C1C(=O)OC2C1C(OC(=O)/C(C)=C/C)CC(O)(CCl)C1C(O)C=C(C)C21O (stereo not given)	5.79 µM (inactive)	9.48 µM (inactive)	4.14 µM (inactive)	2.84 µM (inactive)	4.58 µM (inactive)	16.5 µM (inactive)	12 µM (inactive)	12.6 µM (inactive)	6.28 µM (inactive)	3.72	> 46.1 µM (inactive)	8.93 µM (inactive)	4.89 µM (inactive)	11.4 µM (inactive)	16.7 µM (inactive)	11.9 µM (inactive)	5.68 µM (inactive)	27.5 µM (inactive)	11.9 µM (inactive)	12.5 µM (inactive)
C/C(=N\Nc1nc2ccccc2s1)c1cc2ccccc2cn1	2.88 µM (inactive)	6.05 µM (inactive)	3.03 µM (inactive)	2.81 µM (inactive)	1.52 µM (inactive)	3.85 µM (inactive)	3.34 µM (inactive)	7.76 µM (inactive)	3.03 µM (inactive)	0.424	3.2 µM (inactive)	8.63 µM (inactive)	2.49 µM (inactive)	4.01 µM (inactive)	3.56 µM (inactive)	1.65 µM (inactive)	3.21 µM (inactive)	3.24 µM (inactive)	0.378 µM (active)	3.51 µM (inactive)
O=[N+]([O-])c1nccn1CCCNc1ccnc2cc(Cl)ccc12	4.75 µM (inactive)	8.69 µM (inactive)	> 5.93 µM (inactive)	5.38 µM (inactive)	3.05 µM (inactive)	> 7.74 µM (inactive)	1.93 µM (inactive)	18.2 µM (inactive)	3.47 µM (inactive)	19.8	25.5 µM (inactive)	> 7.98 µM (inactive)	4.63 µM (inactive)	4.5 µM (inactive)	3.12 µM (inactive)	1.77 µM (inactive)	4.34 µM (inactive)	6.62 µM (inactive)	7.67 µM (inactive)	6.21 µM (inactive)
Nc1ncnc2c1nc(Cl)n2[C@@H]1O[C@@H]2COP(=O)(O)O[C@H]2[C@H]1O [TOCLADESINE]	5.05 µM (inactive)	5.69 µM (inactive)	3.61 µM (inactive)	3.48 µM (inactive)	10 µM (inactive)	12.5 µM (inactive)	35.6 µM (inactive)	37.8 µM (inactive)	3.01 µM (inactive)	6.7	19.5 µM (inactive)	12.2 µM (inactive)	2.7 µM (inactive)	8.02 µM (inactive)	7.03 µM (inactive)	44.9 µM (inactive)	6.47 µM (inactive)	31.8 µM (inactive)	14.7 µM (inactive)	15.7 µM (inactive)
CC1CNC(c2cccc(-c3nc(-c4cccc(C5=NC(C)CN5)c4)nc(N(C)C)n3)c2)=N1 (stereo not given)	3.12 µM (inactive)	3.19 µM (inactive)	18.1 µM (inactive)	0.587 µM (active)	1.2 µM (inactive)	2.09 µM (inactive)	2.23 µM (inactive)	1.13 µM (inactive)	0.491 µM (active)	8.34	1.08 µM (active)	3.87 µM (inactive)	1.12 µM (inactive)	3.5 µM (inactive)	1.94 µM (inactive)	1.53 µM (inactive)	2.75 µM (inactive)	1.91 µM (inactive)	2.5 µM (inactive)	1.82 µM (inactive)
CCN(CC)CCCNc1ncc(C)c2c1c1ccc3c(O)cccc3c1n2C	1.8 µM (inactive)	1.89 µM (inactive)	0.449 µM (active)	0.392 µM (active)	5.52 µM (inactive)	1.57 µM (inactive)	3.02 µM (inactive)	0.798 µM (active)	1.05 µM (active)	2.74	0.964 µM (active)	9.16 µM (inactive)	1.29 µM (inactive)	4.15 µM (inactive)	1.02 µM (active)	3.87 µM (inactive)	1.47 µM (inactive)	1.81 µM (inactive)	17.9 µM (inactive)	18 µM (inactive)
C#C[C@]1(O)CC[C@H]2[C@@H]3CCC4=C/C(=N/OCCN(C)C)CC[C@]4(C)[C@H]3CC[C@@]21C	54.7 µM (inactive)	65.9 µM (inactive)	78 µM (inactive)	16.3 µM (inactive)	26.7 µM (inactive)	22.3 µM (inactive)	32.3 µM (inactive)	41 µM (inactive)	25.6 µM (inactive)	36.1	29.9 µM (inactive)	52.8 µM (inactive)	37.8 µM (inactive)	15 µM (inactive)	21.8 µM (inactive)	22 µM (inactive)	28.4 µM (inactive)	30.1 µM (inactive)	> 100 µM (inactive)	32.5 µM (inactive)
Clc1ccc(/C=N/C23CC4CC(CC(C4)C2)C3)c(Cl)c1	> 10 µM (inactive)	> 10 µM (inactive)	> 10 µM (inactive)	> 10 µM (inactive)	> 10 µM (inactive)	> 10 µM (inactive)	> 10 µM (inactive)	> 10 µM (inactive)	> 10 µM (inactive)	> 10	> 10 µM (inactive)	> 10 µM (inactive)	> 10 µM (inactive)	> 10 µM (inactive)	> 10 µM (inactive)	> 10 µM (inactive)	> 10 µM (inactive)	> 10 µM (inactive)	> 10 µM (inactive)	> 10 µM (inactive)
CCc1nc2c(c(N(C)C)c1C(=O)OC)CCc1ccccc1-2	23 µM (inactive)	35 µM (inactive)	51.1 µM (inactive)	2.45 µM (inactive)	18.7 µM (inactive)	1.5 µM (inactive)	25.9 µM (inactive)	24.6 µM (inactive)	24.8 µM (inactive)	32.5	24.8 µM (inactive)	65.2 µM (inactive)	27.2 µM (inactive)	24 µM (inactive)	30.6 µM (inactive)	13.4 µM (inactive)	18.7 µM (inactive)	35.4 µM (inactive)	11 µM (inactive)	16.9 µM (inactive)
CC1c2cc(c3c(c2O)CN([C@@H](C)C2CCCCC2)CO3)C(C)c2cc(c3c(c2O)CN([C@@H](C)C2CCCCC2)CO3)C(C)c2cc(c3c(c2O)CN([C@@H](C)C2CCCCC2)CO3)C(C)c2cc1c1c(c2O)CN([C@@H](C)C2CCCCC2)CO1 (stereo not given in full)	1.47 µM (inactive)	1.77 µM (inactive)	1.6 µM (inactive)	0.34 µM (active)	1.36 µM (inactive)	1.35 µM (inactive)	1.06 µM (active)	1.45 µM (inactive)	1.06 µM (active)	1.51	1.97 µM (inactive)	1.45 µM (inactive)	0.681 µM (active)	2.3 µM (inactive)	1.28 µM (inactive)	1.71 µM (inactive)	0.414 µM (active)	1.22 µM (inactive)	1.56 µM (inactive)	1.8 µM (inactive)
CCC1(C)C=Cc2c(cc(OC)c3c(=O)c4ccccc4n(C)c23)O1 (stereo not given)	> 10 µM (inactive)	5.4 µM (inactive)	1.22 µM (inactive)	9.27 µM (inactive)	> 10 µM (inactive)	> 10 µM (inactive)	> 10 µM (inactive)	> 10 µM (inactive)	> 10 µM (inactive)	7.23	> 10 µM (inactive)	> 10 µM (inactive)	> 10 µM (inactive)	> 10 µM (inactive)	8 µM (inactive)	9.55 µM (inactive)	3.83 µM (inactive)	7.13 µM (inactive)	4.99 µM (inactive)	9.98 µM (inactive)
CN(C)Cc1ccc(C(C)(C)C)cc1-c1cc(C(C)(C)C)ccc1CN(C)C	> 100 µM (inactive)	> 100 µM (inactive)	> 100 µM (inactive)	42.7 µM (inactive)	19.4 µM (inactive)	> 100 µM (inactive)	39.2 µM (inactive)	16 µM (inactive)	37.7 µM (inactive)	72.3	> 100 µM (inactive)	> 100 µM (inactive)	83.6 µM (inactive)	20.8 µM (inactive)	51.1 µM (inactive)	21.8 µM (inactive)	26.9 µM (inactive)	88.1 µM (inactive)	48.2 µM (inactive)	> 100 µM (inactive)
CC(C)(C)c1ccc(C(C)(C)C)c(N2C(=O)C3ON=C(c4ccc([N+](=O)[O-])cc4)C3C2=O)c1 (stereo not given)	15.2 µM (inactive)	> 25 µM (inactive)	> 25 µM (inactive)	> 25 µM (inactive)	> 25 µM (inactive)	10.8 µM (inactive)	20.3 µM (inactive)	5.02 µM (inactive)	13.7 µM (inactive)	20.3	23.4 µM (inactive)	9.46 µM (inactive)	9.04 µM (inactive)	> 25 µM (inactive)	6.75 µM (inactive)	10.5 µM (inactive)	10 µM (inactive)	5.07 µM (inactive)	> 25 µM (inactive)	17.8 µM (inactive)
CCN(CC)c1ccc(C(=C2C=CC(=[N+](CC)CC)C=C2)c2ccc(N(CC)CC)cc2)cc1	0.0446 µM (active)	0.0332 µM (active)	0.21 µM (active)	0.0593 µM (active)	0.0627 µM (active)	0.0708 µM (active)	0.244 µM (active)	0.186 µM (active)	0.0493 µM (active)	0.194	0.238 µM (active)	0.211 µM (active)	0.0541 µM (active)	0.175 µM (active)	0.0411 µM (active)	0.0393 µM (active)	0.0342 µM (active)	0.104 µM (active)	0.106 µM (active)	0.219 µM (active)

— ChEMBL document CHEMBL1201862, “PubChem BioAssay data set” (2004)
